Values quoted from earlier work in PMC11859340, “The Therapeutic Potential of Spirooxindoles in Cancer: A Focus on p53–MDM2 Modulation” (Pharmaceuticals, 2025).
Read-outs that look alike come from different tables or passages of the source. One block for each compound: values may come before it.

Key:
HCT116 (p53^−/−) [1] = tested on: HCT116 (p53^−/−); design: method as in doi:10.1039/C5MD00450K; conditions: read-out: GI50 against HCT116 (p53^−/−)
A549 (lung) [2] = tested on: A549 (lung); design: method as in doi:10.1080/10426507.2020.1723590; conditions: MTT; read-out: IC50 against A549
HCT116 (p53^−/−) [3] = tested on: HCT116 (p53^−/−); design: method as in PMID 28987608; conditions: MTT; read-out: IC50 against HCT116 (p53^−/−)
[4] = tested on: HEK293T (embryonic kidney); design: method as in doi:10.1080/10426507.2020.1723590; conditions: MTT; read-out: IC50 against HEK293T
PC-3 (p53−) = tested on: PC-3 (p53−); design: method as in PMID 30735387; conditions: MTT; read-out: IC50 against PC-3 (p53−)
p53 = tested on: p53; design: method as in doi:10.1080/10426507.2020.1723590
LNCaP (p53+) = tested on: LNCaP (p53+); design: method as in PMID 30735387; conditions: MTT; read-out: IC50 against LNCaP (p53+)
PC3 = tested on: PC3; design: method as in doi:10.3390/separations10040225; conditions: MTT; read-out: IC50 against PC3
MDA-MB-231 = tested on: MDA-MB-231; design: method as in doi:10.3390/separations10040225; conditions: MTT; read-out: IC50 against MDA-MB-231
MDM2 = molecular target: MDM2; design: method as in doi:10.3390/separations10040225; conditions: MST; read-out: KD, MST binding affinity for MDM2
MCF7 [5] = tested on: MCF7; design: method as in PMID 28987608; conditions: MTT; read-out: IC50 against MCF7
MDA-MB-231 (breast) [6] = tested on: MDA-MB-231 (breast); design: method as in PMID 28987608; conditions: MTT; read-out: IC50 against MDA-MB-231
[7] = tested on: HEK 293T (embryonic kidney non-cancer); design: method as in PMID 28987608; conditions: MTT, read-out: IC50 against HEK 293T
HCT116 (p53^+/+) = tested on: HCT116 (p53^+/+); design: method as in PMID 28987608; conditions: MTT; read-out: IC50 against HCT116 (p53^+/+)
neuroblastoma = tested on: neuroblastoma; design: method as in PMID 29416773; conditions: oral 50 mg/kg body weight for 50 days, 4 days on and 2 days off
MDA-MB-231 (breast) [8] = tested on: MDA-MB-231 (breast); design: method as in PMID 26883465; conditions: MTT; read-out: IC50 against MDA-MB-231
HCT116 (colon) [9] = tested on: HCT116 (colon); design: method as in PMID 26883465; conditions: MTT; read-out: IC50 against HCT116
A549 (lung) [10] = tested on: A549 (lung); design: method as in PMID 26883465; conditions: MTT; read-out: IC50 against A549
[11] = tested on: MCF7 (breast) cancer cell line; design: method as in doi:10.1016/j.molstruc.2023.137026; conditions: MCF7, at 200 μg/mL
MCF7 (breast) [12] = tested on: MCF7 (breast); design: method as in PMID 28797774; conditions: CCK-8; read-out: IC50 against MCF7
breast MCF7 = tested on: breast MCF7; design: method as in PMID 31047751; conditions: CCK-8
HCT116 (colon) [13] = tested on: HCT116 (colon); design: method as in PMID 28797774; conditions: CCK-8; read-out: IC50 against HCT116
MD-MB-231 = tested on: MD-MB-231; design: method as in PMID 25618595; conditions: MTT; read-out: IC50 against MD-MB-231
[14] = tested on: HepG2 (hepatocellular wild p53 type); design: method as in PMID 24268795; conditions: read-out: GI50 against HepG2
colon HCT116 = tested on: colon HCT116; design: method as in PMID 31047751; conditions: at 10 μM, CCK-8
A549 (lung) [15] = tested on: A549 (lung); design: method as in PMID 29302672; conditions: at 10 μM, CCK-8
A549 (lung) [16] = tested on: A549 (lung); design: method as in PMID 28797774; conditions: CCK-8; read-out: IC50 against A549
HCT116 (p53^−/−) [17] = tested on: HCT116 (p53^−/−); design: method as in PMID 24268795; conditions: read-out: GI50 against HCT116 (p53^−/−)
HCT116 (colon) [18] = tested on: HCT116 (colon); design: method as in PMID 29302672; conditions: at 10 μM, CCK-8
MCF7 [19] = tested on: MCF7; design: method as in PMID 25618595; conditions: MTT; read-out: IC50 against MCF7
lung A549 = tested on: lung A549; design: method as in PMID 31047751; conditions: CCK-8
MCF7 (breast) [20] = tested on: MCF7 (breast); design: method as in PMID 29302672; conditions: at 10 μM, CCK-8

Compound: COC(=O)C1([N+](=O)[O-])C[C@@H](c2ccccc2)N(c2ccccc2)[C@]12C(=O)Nc1ccccc12 (stereo partly drawn)
- IC50 (LNCaP (p53+)): 6.2 to 7.9 µM
- IC50 (PC-3 (p53−)): 6.8 to 8.5 µM

Compound: O=C(c1nc2ccccc2[nH]1)[C@H]1[C@H](c2ccc(Cl)cc2)C2CC3CCCCC3N2[C@]12C(=O)Nc1ccc(Cl)cc12 (stereo partly drawn) [39 (R = 4-ClC6H4)]
- IC50 (PC3): 4.574 ± 0.011 µM
- IC50 (MDA-MB-231): 4.76 ± 0.069 µM
- Kd (MDM2): 2.38 µM

Compound: CC1(C)CCC2(CC1)N[C@@H](C(=O)N[C@@H]1CC[C@@H](C(N)=O)OC1)[C@H](c1ccnc(Cl)c1F)[C@]21C(=O)Nc2cc(Cl)ccc21 [Milademetan]
- tumor growth and survival (neuroblastoma): tumor growth inhibition and extended survival

Compound: COC(=O)C[C@@H]1CS[C@]2(C(=O)Nc3cccc(Br)c32)[C@H](c2ccc(Br)cc2)[C@H]1C=O [136 (R = 4-Br, R’ = 4-BrC6H4)]
- IC50 (MDA-MB-231 (breast) [8]): 3.55 µM
- IC50 (HCT116 (colon) [9]): 1.57 µM
- IC50 (A549 (lung) [10]): 1.67 µM

Compound: CCCN1C(=O)[C@]2(N[C@@H](c3ccccc3)[C@@]3(Sc4c(C(=O)C(=O)OC)c5ccccc5n4C3=O)[C@H]2C(=O)OC)c2ccc(Cl)cc21
- cell viability [11]: 80%

More lines, main results first:

- GI50 (HCT116 (p53^−/−) [1]): 47.8 ± 1.9 µM
- IC50 (HCT116 (p53^−/−) [3]): 47.8 ± 1.9 µM
- IC50 (PC-3 (p53−)): 28.1 to 29.6 µM
Compound: COc1ccc(C2=N[C@@H](c3ccc(Cl)cc3)[C@@H](c3ccc(Cl)cc3)N2C(=O)N2CCNC(=O)C2)c(OC(C)C)c1 [nutlin-3a, reference compound]
- IC50 (A549 (lung) [2]): 14.9 ± 0.6 µM
- IC50 [4]: 10.4 ± 0.8 µM
- p53 reporter activation (p53; A549, 1.56 to 100 μM compound concentrations): 3.6 to 5.1 folds
- p53 receptor activation (p53; A549, at 100 μM): 5.1 fold

- IC50 (HCT116 (p53^−/−) [3]): 17.7 ± 1.3 µM
- IC50 (MCF7 [5]): 9.5 ± 3.1 µM
- IC50 (MDA-MB-231 (breast) [6]): 7.6 ± 2.4 µM
- IC50 [7]: 21.4 ± 7.4 µM
- IC50 (HCT116 (p53^+/+)): 13.9 ± 1.1 µM
Compound: O=C1Nc2ccc(Br)cc2C12N(c1ccccc1Cl)N=C(c1cccc(Cl)c1)N2c1cccc(Cl)c1 (stereo not drawn)

- IC50 (HCT116 (p53^−/−) [3]): 17.9 ± 0.6 µM
- IC50 (MCF7 [5]): 9.8 ± 1.5 µM
- IC50 (MDA-MB-231 (breast) [6]): 8.9 ± 1.9 µM
- IC50 [7]: > 100 µM
- IC50 (HCT116 (p53^+/+)): 16.3 ± 0.2 µM
Compound: O=C1Nc2ccc(Cl)cc2C12N(c1ccccc1)N=C(c1ccccc1)N2c1cccc(Cl)c1 (stereo not drawn)

- IC50 (MDA-MB-231 (breast) [8]): 4.68 µM
- IC50 (MCF7 (breast) [12]): 28.4 ± 2.5 µM
- IC50 (HCT116 (colon) [9]): 1.16 µM
- IC50 (breast MCF7; read-out: IC50 against MCF7): 12.1 µM
- IC50 (HCT116 (colon) [13]): 14.9 ± 0.6 µM
- IC50 (A549 (lung) [10]): 2.22 µM
- GI50 [14]: 51.3 ± 1.04 µM
- IC50 (A549 (lung) [16]): 10 ± 0.8 µM
- GI50 (HCT116 (p53^−/−) [17]): 52.3 ± 1.15 µM
- IC50 (MCF7 [19]): 11.6 µM
- IC50 (lung A549; read-out: IC50 against A549): 2.4 µM
Compound: COc1ccc(C2=N[C@@H](c3ccc(Cl)cc3)[C@@H](c3ccc(Cl)cc3)N2C(=O)N2CCNC(=O)C2)c(OC(C)C)c1 [nutlin-3, reference compound]
- % inhibition, MCF7 (breast MCF7; at 10 μM): 32.8%
- IC50 (MD-MB-231): 23.5 µM
- % inhibition, HCT116 (colon HCT116): 64.4%
- % inhibition, A549 (A549 (lung) [15]): 42.9%
- % inhibition, HCT116 (HCT116 (colon) [18]): 42.9%
- % inhibition, A549 (lung A549; at 10 μM): 47.0%
- % inhibition, MCF7 (MCF7 (breast) [20]): 33.1%
